Laboratory results as given in US8003847B2, “Non-human mutant mammals deficient in Sigma receptors and their applications” (Laboratorios Del Dr. Esteve, S.A., priority 2002, dated 2011).

Experiments:
type-1 Sigma receptors = type-1 Sigma receptors (Homo sapiens, UniProt Q99720); details: type-1 Sigma receptor, result in words; cited from earlier work
type-2 Sigma receptors = type-2 Sigma receptors (Homo sapiens, UniProt Q5BJF2); details: type-2 Sigma receptor, result in words; cited from earlier work
type-2 Sigma receptors, sequence (Q5BJF2 whole entry): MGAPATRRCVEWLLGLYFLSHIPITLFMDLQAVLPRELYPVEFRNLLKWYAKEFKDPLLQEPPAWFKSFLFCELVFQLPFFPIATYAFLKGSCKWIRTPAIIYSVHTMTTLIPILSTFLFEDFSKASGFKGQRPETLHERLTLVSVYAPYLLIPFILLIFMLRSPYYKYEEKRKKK

mouse Sigma-1 receptor = assay: specific binding test to the [3H]-pentazocine ligand, brain membrane fraction; details: brain membranes of homozygous mutant (-/-) mice; 37° C., 130-170 minutes
Description: Fourthly, the activity (function) of the mouse Sigma-1 receptor was evaluated by a specific binding test to the [^3H]-pentazocine ligand. Briefly, the brains of mutant (−/−), heterozygous (+/−) and wild (+/+) mice were homogenised and the homogenisations ere centrifuged several times at different speeds to obtain the membrane fraction. Then samples of the membrane fraction obtained were incubated with the [^3H]-pentazocine radioligand in optimal binding conditions for this receptor (37° C., for 130-170 minutes), filtrating the samples, washing them and reading the radioactivity count present in the filtrate (see DeHaven-Hudkins D. L., Fleissner L. C., Ford-Rice, F. Y. (1992) Characterization of the binding of [3H]-Pentazocine to sigma recognition sites in guinea pigs brain. European Journal of Pharmacology 227:371-378, hereinafter DeHaven-Hudkins).

Sigma-1 receptor = Sigma-1 receptor (Mus musculus, UniProt O55242); details: in vivo
Sigma-1 receptor, sequence (O55242 whole entry): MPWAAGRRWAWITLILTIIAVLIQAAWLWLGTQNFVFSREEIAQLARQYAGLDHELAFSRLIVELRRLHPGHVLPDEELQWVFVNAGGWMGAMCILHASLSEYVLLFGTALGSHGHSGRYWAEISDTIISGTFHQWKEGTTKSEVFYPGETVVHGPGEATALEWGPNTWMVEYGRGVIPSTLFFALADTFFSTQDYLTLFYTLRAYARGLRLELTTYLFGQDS
Description: Fifthly, the function of the Sigma-1 receptor was evaluated according to known behavioral paradigms and protocols.

type-1 Sigma receptors, sequence (Q99720 whole entry): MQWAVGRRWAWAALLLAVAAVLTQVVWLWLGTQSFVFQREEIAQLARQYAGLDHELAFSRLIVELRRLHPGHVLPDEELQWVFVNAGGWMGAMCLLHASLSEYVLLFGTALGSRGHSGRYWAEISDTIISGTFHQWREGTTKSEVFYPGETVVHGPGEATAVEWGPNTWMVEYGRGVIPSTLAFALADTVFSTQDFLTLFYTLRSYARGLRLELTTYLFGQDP

| Compound | affinity (type-1 Sigma receptors) | affinity (type-2 Sigma receptors) | other results |
| --- | --- | --- | --- |
| C[C@@H]1CN(CCCn2c3ccccc3c3ccccc32)C[C@H](C)N1 [rimcazole] | high affinity | – | – |
| (+)-SKF10047 | – | low affinity | – |
| CC(C)=CCN1CCC2(C)c3cc(O)ccc3CC1C2C (single isomer, unassigned; (+)) [(+)-pentazocine] | high affinity | low affinity | – |
| [3H]c1cc2c(c([3H])c1O)[C@@]1(C)CCN(CC=C(C)C)[C@@H](C2)[C@H]1C [[^3H]-pentazocine] | – | – | specific binding of radioligand (activity/function of receptor) (mouse Sigma-1 receptor): lack of activity (function) |
| O=C(CCCN1CCC(O)(c2ccc(Cl)cc2)CC1)c1ccc(F)cc1 [haloperidol] | – | high to moderate affinity | – |
| N-allylnormetazocine [SKF-10047] | high affinity | – | hyperactivity (hypermotility) response (Sigma-1 receptor): Statistically significant differences have only been observed with wild mice |
